Earlier results as cited in patent US10441617B2, “Breeding, production, processing and use of medical cannabis” (priority 2013, dated 2019).
Read-outs that look alike come from different tables or passages of the source.

Tests used:
5-HT1A receptor = target: T1, 5-HT1A receptor (Homo sapiens, UniProt P08908)
T1 sequence (P08908 1-422): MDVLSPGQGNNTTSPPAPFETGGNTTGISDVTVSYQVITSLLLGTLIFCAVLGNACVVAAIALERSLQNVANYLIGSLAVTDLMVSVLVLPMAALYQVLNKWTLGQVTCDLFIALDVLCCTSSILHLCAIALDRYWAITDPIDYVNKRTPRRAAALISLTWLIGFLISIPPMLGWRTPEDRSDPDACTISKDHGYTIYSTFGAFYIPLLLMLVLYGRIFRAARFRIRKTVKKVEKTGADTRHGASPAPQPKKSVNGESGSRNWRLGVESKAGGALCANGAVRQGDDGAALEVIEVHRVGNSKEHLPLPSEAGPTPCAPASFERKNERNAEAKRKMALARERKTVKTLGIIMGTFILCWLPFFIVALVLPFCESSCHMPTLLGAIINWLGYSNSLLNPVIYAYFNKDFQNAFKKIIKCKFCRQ

[1] = CBD 1-10 mg/kg IP over 21 days with equivalent doses of delta-9-THC
cannabinoid receptor CB1 = cannabinoid receptor CB1 (Homo sapiens, UniProt P21554)
Sequence of cannabinoid receptor CB1 (P21554 whole entry): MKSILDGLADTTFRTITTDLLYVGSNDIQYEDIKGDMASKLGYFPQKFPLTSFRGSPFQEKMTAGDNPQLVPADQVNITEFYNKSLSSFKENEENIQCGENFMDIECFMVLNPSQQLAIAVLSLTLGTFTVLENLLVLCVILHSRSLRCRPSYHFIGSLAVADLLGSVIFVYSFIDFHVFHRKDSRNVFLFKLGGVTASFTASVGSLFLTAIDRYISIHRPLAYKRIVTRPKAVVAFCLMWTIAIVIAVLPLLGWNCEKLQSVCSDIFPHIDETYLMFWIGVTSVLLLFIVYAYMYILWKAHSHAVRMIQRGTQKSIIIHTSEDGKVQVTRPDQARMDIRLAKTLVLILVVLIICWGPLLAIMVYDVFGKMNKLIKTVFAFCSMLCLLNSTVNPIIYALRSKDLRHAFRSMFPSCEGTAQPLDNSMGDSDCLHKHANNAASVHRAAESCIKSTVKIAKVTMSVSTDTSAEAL

[2] = tested on: aggressive human breast cancer cells; settings: in vitro
CB2 receptor = CB2 receptor (Homo sapiens, UniProt P34972)
Sequence of CB2 receptor (P34972 whole entry): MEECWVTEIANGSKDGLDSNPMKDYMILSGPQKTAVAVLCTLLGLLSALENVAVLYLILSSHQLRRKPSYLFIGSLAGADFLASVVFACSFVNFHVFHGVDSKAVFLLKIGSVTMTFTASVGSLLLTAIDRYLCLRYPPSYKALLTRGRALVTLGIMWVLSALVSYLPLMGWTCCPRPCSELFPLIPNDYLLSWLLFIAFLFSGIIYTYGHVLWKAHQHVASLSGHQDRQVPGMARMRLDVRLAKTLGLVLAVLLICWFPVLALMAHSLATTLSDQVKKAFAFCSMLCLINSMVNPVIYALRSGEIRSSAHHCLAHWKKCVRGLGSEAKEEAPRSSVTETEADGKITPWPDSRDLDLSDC

GPR55 = GPR55 (Homo sapiens, UniProt Q9Y2T6)
Sequence of GPR55 (Q9Y2T6 whole entry, species assumed): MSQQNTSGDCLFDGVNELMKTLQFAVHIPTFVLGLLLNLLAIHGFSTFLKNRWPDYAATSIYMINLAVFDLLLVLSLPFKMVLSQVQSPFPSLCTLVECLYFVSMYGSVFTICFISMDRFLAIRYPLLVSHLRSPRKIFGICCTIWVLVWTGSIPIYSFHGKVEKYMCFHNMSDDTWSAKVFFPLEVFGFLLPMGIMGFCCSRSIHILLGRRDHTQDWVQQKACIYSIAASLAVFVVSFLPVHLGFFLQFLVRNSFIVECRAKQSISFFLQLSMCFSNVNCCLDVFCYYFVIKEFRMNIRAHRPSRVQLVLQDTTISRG

[3] = tested on: Mu and Delta opioid receptor sites

For `C=C(C)[C@@H]1CCC(C)=C[C@H]1c1c(O)cc(CCCCC)cc1O` [CBD, Cannabidiol], the “Activity at 5-HT1A receptor” value (5-HT1A receptor) is listed as 5-HT1A receptor agonist, the “Behavioral effects of delta-9-THC” value [1] is listed as “augmented the anxiogenic and locomotor suppressant effects and social interaction deficits” and the “Blood and brain levels of delta-9-THC” value [1] is listed as “increased blood and brain levels”. The “Activity at CB1 receptor” value (cannabinoid receptor CB1) was “no affinity”, the “Growth of aggressive human breast cancer cells” value [2] was “reduces growth” and the “Effect of CBD on the effects of delta-9-THC” value (ratio of CBD/delta-9-THC 1.8) was “enhanced the effects of delta-9-THC”. The “Effect of CBD on the effects of delta-9-THC” value (ratio of CBD/delta-9-THC around 8.1) was “antagonistic effects”, the “Activity at CB2 receptor” value (CB2 receptor) was “no affinity” and the “Activity at GPR55” value (GPR55) was “antagonist”. For the same compound, the “Activity at Mu and Delta opioid receptor sites” value [3] was “allosteric modulator”.
For `CCCCCc1cc(O)c(C/C=C(\C)CCC=C(C)C)c(O)c1` [CBG, Cannabigerol], the “Activity at 5-HT1A receptor” value (5-HT1A receptor) is listed as “moderate affinity 5-HT1A receptor antagonist”, the “Activity at α2-adrenergic receptor” value (α2-adrenergic receptor) is listed as “high affinity α2-adrenergic receptor agonist” and the “Activity at CB1 receptor” value (cannabinoid receptor CB1) is listed as “low affinity CB1 receptor antagonist”. The “Activity at CB2 receptor” value (CB2 receptor) was “binds to the CB2 receptor”.
In the case of `CCCCCc1cc(O)c2c(c1)OC(C)(C)c1ccc(C)cc1-2` [CBN, Cannabinol], the “Activity at CB1 receptor” value (cannabinoid receptor CB1) is listed as “weak agonist” and the “Activity at CB2 receptor” value (CB2 receptor) is listed as “weak agonist”.
For `CCCCCc1cc(O)c2c(c1)OC(C)(C)[C@@H]1CCC(C)=CC21` (stereo partly drawn) [THC, delta-9-tetrahydrocannabinol], the “Activity at CB2 receptor” value (CB2 receptor) is given as “partial agonist activity”.
In the case of `CCCc1cc(O)c2c(c1)OC(C)(C)[C@@H]1CCC(C)=C[C@@H]21` [THCV, Tetrahydrocannabivarin], the “Activity at CB1 receptor” value (cannabinoid receptor CB1) is given as “CB1 receptor antagonist”.
